In patent US7105520B2, “Phenylalanine derivatives” (Ajinomoto Co., Inc., priority 2000, dated 2006):

How the values were obtained:
integrin α 4β1 = molecular target: T1, integrin α 4β1 (Homo sapiens, UniProt P05556+P13612); assay: VCAM antagonistic activity (VCAM-1/α4β1 binding assay), Jurkat cells binding to VCAM-1; format: cell-based; conditions: Jurkat cells (human T cells) binding to recombinant human VCAM-1; room temperature, 30 minutes; read-out: VCAM-1/α 4 β 1 linking antagonization activity IC50
T1 construct: cell strain Jurkat (ATCC TIB-152) of human T cells, known to express integrin α 4β1; host or cells: Jurkat (human T cell line)
Experimental: (Test Example) VCAM Antagonistic Activity (VCAM-1/α4β1 Binding Assay):
The capacity of a test substance antagonistic to the binding of cell strain Jurkat (ATCC TIB-152) of human T cells, known to express integrin α 4β1, to VCAM-1 was determined.
(§1) 100 μl/well of a solution (500 ng/ml) of recombinant human VCAM-1 (R & D systems) solution diluted with buffer A (0.1 M NaHCO3, pH 9.6) was added to a micro titer plate having 96 wells (Nunc Maxisorp). After the incubation at 4° C. overnight, unbound VCAM-1 was removed by washing once with PBS. After completion of the washing, a buffer (buffer B) obtained by diluting Block Ace® (Dainippon Pharmaceutical Co., Ltd.) with PBS to ¼ concentration was added in an amount of 150 μl/well. After the incubation at room temperature for 1 hour, buffer B was removed and the plate was washed with PBS once.
Jurkat cells were washed with Dulbecco modified Eagle medium (SIGMA, hereinafter referred to as “DMEM”) twice and then incubated in DMEM containing 10 μg/ml of Calcein-AM (Wako Pure Chemical Industries, Ltd.) at 37° C. in dark place for 30 minutes to label with fluorescence. The cells were again suspended in a binding buffer (20 mM HEPES, DMEM containing 0.1% BSA).
(§2) 50 μl of a test substance of various concentrations obtained by the dilution with the binding buffer was added to the plate. Immediately thereafter, 50 μl (final volume: 100 μl/well) of the fluorescent Jurkat cells (4×10^6 cells/ml) were added thereto, and they were incubated at room temperature for 30 minutes. After the shaking on a plate shaker (IKA MTS-4) at 800 rpm for 30 seconds, the solution was immediately removed to remove the unbound cells. The fluorescence quantity of the bound cells remaining in the wells was determined with a fluorescent plate reader (Wallac 1420 ARVO multi-label counter) (filter excitation wave length: 485 nm, emission wave length: 535 nm). The fluorescent strength thus obtained is proportional to the number of Jurkat cells bound to VCAM-1 and remaining on the plate. The binding rate of each test material in various concentrations was determined while the fluorescent strength of the test material-free well was determined to be 100%. The concentration IC50 for the 50% binding inhibition was calculated.

integrin α 4β7 = molecular target: T2, integrin α 4β7 (Homo sapiens, UniProt P13612+P26010); assay: VCAM antagonistic activity (VCAM-1/α4β7 binding assay), RPMI-8866 cells binding to VCAM-1; format: cell-based; conditions: RPMI-8866 cells (human B cells) binding to recombinant human VCAM-1; binding buffer containing 4 mM of MnCl2; room temperature, 30 minutes; read-out: VCAM-1/α 4 β 7 linking antagonization activity IC50
T2 construct: lymphoma cell strain RPMI-8866 of human B cells, known to express integrin α 4β7; endogenous in cells; host or cells: RPMI-8866 (human B lymphoma cell line)
T2 sequence (P13612 34-1032): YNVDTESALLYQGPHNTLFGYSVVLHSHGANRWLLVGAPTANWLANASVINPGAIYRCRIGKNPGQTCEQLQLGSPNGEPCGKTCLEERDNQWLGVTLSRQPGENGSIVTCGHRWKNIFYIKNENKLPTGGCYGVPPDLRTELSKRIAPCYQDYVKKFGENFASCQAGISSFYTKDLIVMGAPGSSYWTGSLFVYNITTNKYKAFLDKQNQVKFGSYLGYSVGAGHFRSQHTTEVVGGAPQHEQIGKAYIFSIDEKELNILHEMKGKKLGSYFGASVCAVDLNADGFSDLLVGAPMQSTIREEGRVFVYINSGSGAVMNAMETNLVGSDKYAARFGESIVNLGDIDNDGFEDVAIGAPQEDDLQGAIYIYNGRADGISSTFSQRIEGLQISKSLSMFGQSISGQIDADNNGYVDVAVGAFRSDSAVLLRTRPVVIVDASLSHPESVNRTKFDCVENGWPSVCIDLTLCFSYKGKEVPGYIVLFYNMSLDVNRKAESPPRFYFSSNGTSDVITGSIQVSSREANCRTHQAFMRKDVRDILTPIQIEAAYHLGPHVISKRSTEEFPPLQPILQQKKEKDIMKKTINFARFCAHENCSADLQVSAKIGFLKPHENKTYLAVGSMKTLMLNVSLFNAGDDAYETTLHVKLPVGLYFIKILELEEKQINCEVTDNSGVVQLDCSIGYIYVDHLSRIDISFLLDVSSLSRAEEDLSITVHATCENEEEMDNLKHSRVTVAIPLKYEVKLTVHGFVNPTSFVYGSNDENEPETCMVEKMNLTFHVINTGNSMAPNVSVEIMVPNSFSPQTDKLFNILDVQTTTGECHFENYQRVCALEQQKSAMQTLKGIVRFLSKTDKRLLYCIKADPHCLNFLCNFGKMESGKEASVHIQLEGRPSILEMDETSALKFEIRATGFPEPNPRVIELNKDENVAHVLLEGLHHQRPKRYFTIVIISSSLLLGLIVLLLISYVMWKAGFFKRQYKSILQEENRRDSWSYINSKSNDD
T2 sequence (P26010 20-798): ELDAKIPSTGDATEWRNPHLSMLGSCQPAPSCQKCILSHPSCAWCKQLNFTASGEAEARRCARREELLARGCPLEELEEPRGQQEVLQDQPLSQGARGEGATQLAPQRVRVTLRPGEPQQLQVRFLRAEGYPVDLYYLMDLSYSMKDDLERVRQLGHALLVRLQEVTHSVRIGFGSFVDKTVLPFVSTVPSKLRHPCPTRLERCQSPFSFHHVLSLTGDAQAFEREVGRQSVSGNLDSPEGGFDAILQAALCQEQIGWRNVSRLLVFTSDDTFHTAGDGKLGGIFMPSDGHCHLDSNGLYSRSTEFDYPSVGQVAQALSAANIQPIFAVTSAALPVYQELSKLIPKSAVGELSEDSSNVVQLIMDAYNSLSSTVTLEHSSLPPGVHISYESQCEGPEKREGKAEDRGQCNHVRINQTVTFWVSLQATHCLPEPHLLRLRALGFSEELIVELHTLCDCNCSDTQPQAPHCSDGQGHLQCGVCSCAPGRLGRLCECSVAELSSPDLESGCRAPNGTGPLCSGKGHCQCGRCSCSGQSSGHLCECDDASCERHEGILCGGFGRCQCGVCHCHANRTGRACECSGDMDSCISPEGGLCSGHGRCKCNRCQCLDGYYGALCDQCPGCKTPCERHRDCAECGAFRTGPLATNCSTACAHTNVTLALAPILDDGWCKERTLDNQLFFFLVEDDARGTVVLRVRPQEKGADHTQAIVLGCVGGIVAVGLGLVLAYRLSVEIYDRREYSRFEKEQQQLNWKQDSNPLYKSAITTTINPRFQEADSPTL
Experimental: (Test Example) VCAM Antagonistic Activity (VCAM-1/α4β7 Binding Assay):
The capacity of a test substance antagonistic to the binding of lymphoma cell strain RPMI-8866 of human B cells, known to express integrin α 4β7, to VCAM-1 was determined.
as §1
RPMI-8866 cells were incubated in DMEM containing 10 μg/ml of Calcein-AM (Wako Pure Chemical Industries, Ltd.) at 37° C. for 30 minutes to label with fluorescence. The cells were again suspended in a binding buffer (20 mM HEPES, DMEM containing 0.1% BSA) containing 4 mM of MnCl2.
as §2, with “RPMI-8866” for “Jurkat”

T1 sequence (P05556 21-798, one chain of several): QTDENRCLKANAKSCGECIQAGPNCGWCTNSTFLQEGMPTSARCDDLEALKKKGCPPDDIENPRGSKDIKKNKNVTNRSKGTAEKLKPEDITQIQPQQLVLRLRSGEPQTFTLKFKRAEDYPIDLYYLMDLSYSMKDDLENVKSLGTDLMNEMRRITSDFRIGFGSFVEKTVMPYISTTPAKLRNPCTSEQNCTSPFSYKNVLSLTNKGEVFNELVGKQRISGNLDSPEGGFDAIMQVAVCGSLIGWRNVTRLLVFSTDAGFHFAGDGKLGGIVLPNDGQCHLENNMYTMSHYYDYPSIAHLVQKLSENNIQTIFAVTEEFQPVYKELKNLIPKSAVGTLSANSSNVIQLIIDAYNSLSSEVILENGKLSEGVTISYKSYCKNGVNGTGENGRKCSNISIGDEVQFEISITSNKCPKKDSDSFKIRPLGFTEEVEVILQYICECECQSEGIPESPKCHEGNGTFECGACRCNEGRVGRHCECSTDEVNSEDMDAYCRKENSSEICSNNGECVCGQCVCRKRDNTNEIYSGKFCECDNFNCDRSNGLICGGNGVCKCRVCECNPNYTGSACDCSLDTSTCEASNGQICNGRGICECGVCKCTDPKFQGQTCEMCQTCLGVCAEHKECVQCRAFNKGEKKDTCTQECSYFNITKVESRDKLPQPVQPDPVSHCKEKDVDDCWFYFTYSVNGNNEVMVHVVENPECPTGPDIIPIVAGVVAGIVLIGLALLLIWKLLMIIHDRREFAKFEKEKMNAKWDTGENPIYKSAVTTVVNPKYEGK

IC50 (integrin α 4β1) [nM]	IC50 (integrin α 4β7) [nM]	SMILES
4000	100	CC(C)NCCN(c1ccc([N+](=O)[O-])c(C(=O)NC(Cc2ccc(OCc3c(Cl)cccc3Cl)cc2)C(=O)O)c1)C(C)C (stereo not shown) [Example 2, N-(3-(N-isopropylaminoethyl-N′-isopropyl)amino-6-nitrobenzoyl)-O-(2,6-dichlorobenzyl)tyrosine]
5500	120	CC(C)NCCCN(c1ccc([N+](=O)[O-])c(C(=O)NC(Cc2ccc(OCc3c(Cl)cccc3Cl)cc2)C(=O)O)c1)C(C)C (stereo not shown) [Example 3]
3700	120	CCCNCCCCN(CCC)c1ccc([N+](=O)[O-])c(C(=O)NC(Cc2ccc(OCc3c(Cl)cccc3Cl)cc2)C(=O)O)c1 (stereo not shown) [Example 4]
4900	140	CC1CN(c2ccc([N+](=O)[O-])c(C(=O)NC(Cc3ccc(OCc4c(Cl)cccc4Cl)cc3)C(=O)O)c2)C(C)CN1 (stereo not shown) [Example 5]
4800	150	CCNC/C=C/CN(CC)c1ccc([N+](=O)[O-])c(C(=O)NC(Cc2ccc(OCc3c(Cl)cccc3Cl)cc2)C(=O)O)c1 (stereo not shown) [Example 6]
9400	160	CCNCCN(CC)c1ccc([N+](=O)[O-])c(C(=O)NC(Cc2ccc(OCc3c(Cl)cccc3Cl)cc2)C(=O)O)c1 (stereo not shown) [Example 7]
4000	750	O=C(NC(Cc1ccc(OCc2c(Cl)cccc2Cl)cc1)C(=O)O)c1cc(N2CCNCC2)ccc1[N+](=O)[O-] (stereo not shown) [Example 8]
4100	360	CCCN(C)c1ccc([N+](=O)[O-])c(C(=O)NC(Cc2ccc(OCc3c(Cl)cccc3Cl)cc2)C(=O)O)c1 (stereo not shown) [Example 12]
2200	140	O=C(NC(Cc1ccc(OCc2c(Cl)cccc2Cl)cc1)C(=O)O)c1cc(N2CCOCC2)ccc1[N+](=O)[O-] (stereo not shown) [Example 18]
3300	160	O=C1CCN(c2ccc([N+](=O)[O-])c(C(=O)NC(Cc3ccc(OCc4c(Cl)cccc4Cl)cc3)C(=O)O)c2)CC1 (stereo not shown) [Example 21]
4600	220	O=C(NC(Cc1ccc(OCc2c(Cl)cccc2Cl)cc1)C(=O)O)c1cc(N2CCC(O)CC2)ccc1[N+](=O)[O-] (stereo not shown) [Example 22]
2200	66	CN(CCO)c1ccc([N+](=O)[O-])c(C(=O)NC(Cc2ccc(OCc3c(Cl)cccc3Cl)cc2)C(=O)O)c1 (stereo not shown) [Example 23]
4000	750	O=C(NC(Cc1ccc(OCc2c(Cl)cccc2Cl)cc1)C(=O)O)c1ccc(N2CCNCC2)c([N+](=O)[O-])c1 (stereo not shown) [Example 25]
2400	37	CC(C)NCCN(c1ccc([N+](=O)[O-])c(C(=O)NC(Cc2ccc(NC(=O)c3snnc3-c3ccccc3)cc2)C(=O)O)c1)C(C)C (stereo not shown) [Example 26]
27	1.2	CSc1ncc(Cl)c(C(=O)Nc2ccc(CC(NC(=O)c3cc(N(CCNC(C)C)C(C)C)ccc3[N+](=O)[O-])C(=O)O)cc2)n1 (stereo not shown) [Example 27]
23	1.1	CSc1ncc(Cl)c(C(=O)Nc2ccc(C[C@H](NC(=O)c3cc(N(CCNC(C)C)C(C)C)ccc3[N+](=O)[O-])C(=O)O)cc2)n1 [Example 28]
87	5.3	CSc1ncc(Cl)c(C(=O)Nc2ccc(C[C@H](NC(=O)c3cc(N(CCN(C(C)=O)C(C)C)C(C)C)ccc3[N+](=O)[O-])C(=O)O)cc2)n1 [Example 30]
